Measurements reported in the supplement of paper PMC10307832.

Assays:
Test in all cases: relative viability (nuclei count vs DMSO), 5 days (fraction); higher = more cells survive
RO-3306 + AZD7762 = compound: C1=CC2=C(C=CC(=C2)C=C3C(=O)NC(=NCC4=CC=CS4)S3)N=C1 [RO-3306] + NC(=O)Nc1cc(-c2cccc(F)c2)sc1C(=O)N[C@H]1CCCNC1 [AZD7762] (partner 0.2 µM)
Procedure, shortened: (§1)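 Lung cancer cell lines, seeded in 1536-well plates, were treated the following day by pin tool with a single drug or with five library-drug doses (not always all listed) in √10 steps on top of a fixed anchor-drug dose. Cells were fixed and nuclei stained in one step after 5 days, and nuclei were counted. Relative viability is the nuclei count for treated wells divided by that for vehicle wells, reported as medians of duplicate plates.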

RO-3306 + Lapatinib = compound: C1=CC2=C(C=CC(=C2)C=C3C(=O)NC(=NCC4=CC=CS4)S3)N=C1 [RO-3306] + CS(=O)(=O)CCNCc1ccc(-c2ccc3ncnc(Nc4ccc(OCc5cccc(F)c5)c(Cl)c4)c3c2)o1 [Lapatinib] (partner 2 µM)
Procedure, shortened: as §1

RO-3306 + Vorinostat = compound: C1=CC2=C(C=CC(=C2)C=C3C(=O)NC(=NCC4=CC=CS4)S3)N=C1 [RO-3306] + O=C(CCCCCCC(=O)Nc1ccccc1)NO [Vorinostat] (partner 1 µM)
Procedure, shortened: as §1

RO-3306 + Luminespib = compound: C1=CC2=C(C=CC(=C2)C=C3C(=O)NC(=NCC4=CC=CS4)S3)N=C1 [RO-3306] + CCNC(=O)c1noc(-c2cc(C(C)C)c(O)cc2O)c1-c1ccc(CN2CCOCC2)cc1 [Luminespib] (partner 0.01 µM)
Procedure, shortened: as §1

Cell Line	relative viability (RO-3306 + AZD7762; first compound 0.01 µM)	relative viability (RO-3306 + AZD7762; first compound 0.03162 µM)	relative viability (RO-3306 + AZD7762; first compound 0.1 µM)	relative viability (RO-3306 + AZD7762; first compound 0.3162 µM)	relative viability (RO-3306 + AZD7762; first compound 1 µM)	relative viability (RO-3306 + Lapatinib; first compound 0.01 µM)	relative viability (RO-3306 + Lapatinib; first compound 0.03162 µM)	relative viability (RO-3306 + Lapatinib; first compound 0.1 µM)	relative viability (RO-3306 + Lapatinib; first compound 0.3162 µM)	relative viability (RO-3306 + Lapatinib; first compound 1 µM)	relative viability (RO-3306 + Vorinostat; first compound 0.01 µM)	relative viability (RO-3306 + Vorinostat; first compound 0.03162 µM)	relative viability (RO-3306 + Vorinostat; first compound 0.1 µM)	relative viability (RO-3306 + Vorinostat; first compound 0.3162 µM)	relative viability (RO-3306 + Vorinostat; first compound 1 µM)	relative viability (RO-3306 + Luminespib; first compound 0.01 µM)	relative viability (RO-3306 + Luminespib; first compound 0.03162 µM)	relative viability (RO-3306 + Luminespib; first compound 0.1 µM)	relative viability (RO-3306 + Luminespib; first compound 0.3162 µM)	relative viability (RO-3306 + Luminespib; first compound 1 µM)
201T	0.617	0.651	0.59	0.511	0.595	1.04	0.954	1.01	1.04	0.823	1.03	0.974	0.959	1.03	1.02	1.02	1.05	1.02	1.01	1.05
A549						1.16	0.953	0.955	1.05	0.971										
A-427	0.821	0.766	0.685	0.744	0.832	1.08	0.986	1.05	1.03	0.448	0.843	0.818	0.898	0.911	0.865	0.94	0.867	0.928	0.884	1
ABC-1	0.906	0.812	0.823	0.963	0.813	1.25	1.28	1.17	1.16	1.05	1.21	1	1.03	1.13	0.781	0.548	0.719	0.527	0.658	0.898
BEN	0.558	0.676	0.649	0.742	0.768	0.726	0.759	0.754	0.8	0.744	0.565	0.543	0.562	0.595	0.55	0.331	0.337	0.33	0.4	0.447
CAL-12T	0.718	0.565	0.575	0.658	0.747	0.61			0.73	0.591	1.08	0.66	0.647	0.809	0.694	0.68	0.517	0.228	0.433	0.604
COR-L23						0.708		0.942	1.06	1.18	0.51	0.412	0.489	0.394	0.344	0.648	0.591	0.778	0.868	0.562
COR-L 105						0.34	0.351	0.334	0.333	0.314	0.779	0.773	0.77	0.759	0.751	1.07	0.885	0.606	0.65	0.547
Calu-6						1.27	1.12	0.981	1.18	1.06										
ChaGo-K-1	1.08	0.694	0.84	0.945	0.769						0.808	0.654	0.699	0.782	0.557	0.594	0.585	0.469	0.56	0.32
EBC-1						0.206	0.264	0.211	0.193	0.218										
EKVX	0.727	0.538	0.677	0.692	0.603	0.173	0.187	0.237	0.192	0.148	0.75		0.739	0.663	0.712	1.02	0.689	0.841	0.959	0.905
EMC-BAC-2	1.1	1.04	1.14	1.14	1	0.943	0.722	0.916	0.892	0.871	0.417	0.354	0.351	0.534	0.161	1.25	0.983	1.23	1.16	1.15
EPLC-272H	0.152		0.138	0.188	0.199	0.789	0.595	0.803	0.768	0.849	0.243	0.479	0.386	0.382	0.198	0.239	0.114	0.142	0.367	0.111
H3255	0.897	0.774	0.856	0.888	0.848	0.236	0.227	0.245	0.26	0.26	0.788	0.743	0.802	0.826	0.819	0.899	0.938	0.763	0.837	0.866
HARA	0.443		0.237	0.297	0.421	0.763	0.627	0.758	0.687	0.535	0.493	0.404	0.527	0.638	0.445	0.485	0.509	0.676	0.455	0.679
HCC-15	1.25	1.08	1.12	1.21	1.34	0.919	0.779	0.84	0.893	0.592	0.923	0.712	0.898	0.854	0.773	0.488	0.42	0.355	0.315	0.418
HCC-44	1.04	1.1	1.01	1	1.01	0.976	0.953	0.957	1.07	0.719	1.1	1.15	1.08	1.13	1.17	1.2	1.13	1.02	1.11	0.922
HCC-78	0.536	0.498	0.595	0.682	0.513	0.733	0.704	0.732	0.728	0.583	0.428	0.457	0.367	0.494	0.418					
